The record followed here is patent US20230077362A1 (CORTEVA AGRISCIENCE LLC, priority 2019, published 2023).

Test [1] has as its system Beet Armyworm (Spodoptera exigua) ("BAW"), second instar larvae. Nature of the test: Bioassay on beet armyworm (BAW), 128-well diet tray assay. It counts as in vivo. Conditions: Spodoptera exigua, read-out: BAW (Biological Results, rating). The method in brief: (§1)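 Read-out: percent larval mortality per well, averaged over 8 wells. Incubation 25° C., 14:10 L:D photoperiod, 5–7 days, trays sealed with clear adhesive cover.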

The subject of test [2] is Cabbage Looper (Trichoplusia ni) ("CL"), second instar larvae. In words: Bioassay on cabbage looper (CL), 128-well diet tray assay. It is filed as in vivo. Conditions: Trichoplusia ni, read-out: CL (Biological Results, rating). The method in brief:
as §1

For `CCOCc1ccc(C)cc1N1C(=O)CS/C1=N\C(=O)Nc1ccc(-c2ncn(-c3ccc(SC(F)(F)F)cc3)n2)cc1C` [Compound J205, (Z)-1-(3-(2-(Ethoxymethyl)-5-methylphenyl)-4-oxothiazolidin-2-ylidene)-3-(2-methyl-4-(1-(4-((trifluoromethyl)thio)phenyl)-1H-1,2,4-triazol-3-yl)phenyl)urea], the pest or weed control at 50 µg/cm2 in test [1] and in test [2] was 50 to 100% each time.

As for `CCOCc1ccc(C)cc1N1C(=O)CS/C1=N\C(=O)Nc1ccc(-c2ncn(-c3ccc(OC(F)(F)F)cc3)n2)cc1C` [Compound J206, (Z)-1-(3-(2-(Ethoxymethyl)-5-methylphenyl)-4-oxothiazolidin-2-ylidene)-3-(2-methyl-4-(1-(4-(trifluoromethoxy)phenyl)-1H-1,2,4-triazol-3-yl)phenyl)urea], the pest or weed control at 50 µg/cm2 in test [1] and in test [2] was 50 to 100% each time.

Take `Cc1ccc(C(C)C)c(N2C(=O)CS/C2=N\C(=O)Nc2ccc(-c3ncn(-c4ccc(OC(F)(F)F)cc4)n3)cc2C(F)F)c1` [Compound J211, (Z)-1-(2-(Difluoromethyl)-4-(1-(4-(trifluoromethoxy)phenyl)-1H-1,2,4-triazol-3-yl)phenyl)-3-(3-(2-isopropyl-5-methylphenyl)-4-oxothiazolidin-2-ylidene)urea]: the pest or weed control at 50 µg/cm2 in test [1] and in test [2] was 50 to 100% each time.

Turning to `Cc1ccc(OCC(F)(F)F)c(N2C(=O)CS/C2=N\C(=O)Nc2ccc(-c3ncn(-c4ccc(OC(F)(F)F)cc4)n3)cc2C(F)F)c1` [Compound J212, (Z)-1-(2-(Difluoromethyl)-4-(1-(4-(trifluoromethoxy)phenyl)-1H-1,2,4-triazol-3-yl)phenyl)-3-(3-(5-methyl-2-(2,2,2-trifluoroethoxy)phenyl)-4-oxothiazolidin-2-ylidene)urea], the pest or weed control at 50 µg/cm2 in test [1] and in test [2] was 50 to 100% throughout.

For `CC(C)c1ccc(N(C)C)cc1N1C(=O)CS/C1=N\C(=O)Nc1ccc(-c2ncn(-c3ccc(OC(F)(F)F)cc3)n2)cc1C(F)F` [Compound J213, (Z)-1-(2-(Difluoromethyl)-4-(1-(4-(trifluoromethoxy)phenyl)-1H-1,2,4-triazol-3-yl)phenyl)-3-(3-(5-(dimethylamino)-2-isopropylphenyl)-4-oxothiazolidin-2-ylidene)urea], the pest or weed control at 50 µg/cm2 in test [1] and in test [2] was 50 to 100% throughout.

Take `CCOCc1ccc(C)cc1N1C(=O)CS/C1=N\C(=O)Nc1ccc(-c2ncn(-c3ccc(OC(F)(F)F)cc3)n2)cc1C(F)F` [Compound J214, (Z)-1-(2-(Difluoromethyl)-4-(1-(4-(trifluoromethoxy)phenyl)-1H-1,2,4-triazol-3-yl)phenyl)-3-(3-(2-(ethoxymethyl)-5-methylphenyl)-4-oxothiazolidin-2-ylidene)urea]: the pest or weed control at 50 µg/cm2 in test [1] and in test [2] was 50 to 100% each time.

In the case of `Cc1ccc(COCC(F)(F)F)c(N2C(=O)CS/C2=N\C(=O)Nc2ccc(-c3ncn(-c4ccc(OC(F)(F)F)cc4)n3)cc2C(F)F)c1` [Compound J215, (Z)-1-(2-(Difluoromethyl)-4-(1-(4-(trifluoromethoxy)phenyl)-1H-1,2,4-triazol-3-yl)phenyl)-3-(3-(5-methyl-2-((2,2,2-trifluoroethoxy)methyl)phenyl)-4-oxothiazolidin-2-ylidene)urea], the pest or weed control at 50 µg/cm2 in test [1] and in test [2] was 50 to 100% each time.

Consider `Cc1ccc(C(C)C)c(N2C(=O)CS/C2=N\C(=O)Nc2ccc(-c3ncn(-c4ccc(OC(F)(F)F)cc4)n3)cc2Br)c1` [Compound J217, (Z)-1-(2-Bromo-4-(1-(4-(trifluoromethoxy)phenyl)-1H-1,2,4-triazol-3-yl)phenyl)-3-(3-(2-isopropyl-5-methylphenyl)-4-oxothiazolidin-2-ylidene)urea], for which the pest or weed control at 50 µg/cm2 in test [1] and in test [2] was 50 to 100% throughout.

For the compound `Cc1ccc(OCC(F)(F)F)c(N2C(=O)CS/C2=N\C(=O)Nc2ccc(-c3ncn(-c4ccc(OC(F)(F)F)cc4)n3)cc2Br)c1` [Compound J218, (Z)-1-(2-Bromo-4-(1-(4-(trifluoromethoxy)phenyl)-1H-1,2,4-triazol-3-yl)phenyl)-3-(3-(5-methyl-2-(2,2,2-trifluoroethoxy)phenyl)-4-oxothiazolidin-2-ylidene)urea], the pest or weed control at 50 µg/cm2 in test [1] and in test [2] was 50 to 100% each time.

Take `CC(C)c1ccc(N(C)C)cc1N1C(=O)CS/C1=N\C(=O)Nc1ccc(-c2ncn(-c3ccc(OC(F)(F)F)cc3)n2)cc1Br` [Compound J219, (Z)-1-(2-Bromo-4-(1-(4-(trifluoromethoxy)phenyl)-1H-1,2,4-triazol-3-yl)phenyl)-3-(3-(5-(dimethylamino)-2-isopropylphenyl)-4-oxothiazolidin-2-ylidene)urea]: the pest or weed control at 50 µg/cm2 in test [1] and in test [2] was 50 to 100% each time.

For `COC(C)c1ccc(C)cc1N1C(=O)CS/C1=N\C(=O)Nc1ccc(-c2ncn(-c3ccc(OC(F)(F)F)cc3)n2)cc1Br` (stereo not shown) [Compound J220, (Z)-1-(2-Bromo-4-(1-(4-(trifluoromethoxy)phenyl)-1H-1,2,4-triazol-3-yl)phenyl)-3-(3-(2-(1-methoxyethyl)-5-methylphenyl)-4-oxothiazolidin-2-ylidene)urea], the pest or weed control at 50 µg/cm2 in test [1] and in test [2] was 50 to 100% each time.

As for `CCOCc1ccc(C)cc1N1C(=O)CS/C1=N\C(=O)Nc1ccc(-c2ncn(-c3ccc(OC(F)(F)F)cc3)n2)cc1Br` [Compound J221, (Z)-1-(2-Bromo-4-(1-(4-(trifluoromethoxy)phenyl)-1H-1,2,4-triazol-3-yl)phenyl)-3-(3-(2-(ethoxymethyl)-5-methylphenyl)-4-oxothiazolidin-2-ylidene)urea], the pest or weed control at 50 µg/cm2 in test [1] and in test [2] was 50 to 100% each time.

As to `Cc1ccc(COCC(F)(F)F)c(N2C(=O)CS/C2=N\C(=O)Nc2ccc(-c3ncn(-c4ccc(OC(F)(F)F)cc4)n3)cc2Br)c1` [Compound J222, (Z)-1-(2-Bromo-4-(1-(4-(trifluoromethoxy)phenyl)-1H-1,2,4-triazol-3-yl)phenyl)-3-(3-(5-methyl-2-((2,2,2-trifluoroethoxy)methyl)phenyl)-4-oxothiazolidin-2-ylidene)urea], the pest or weed control at 50 µg/cm2 in test [1] and in test [2] was 50 to 100% each time.

Take `Cc1ccc(COCC(F)(F)F)c(N2C(=O)CS/C2=N\C(=O)Nc2ccc(-c3ncn(-c4ccc(SC(F)(F)F)cc4)n3)cc2Cl)c1` [Compound J226, (Z)-1-(2-Chloro-4-(1-(4-((trifluoromethyl)thio)phenyl)-1H-1,2,4-triazol-3-yl)phenyl)-3-(3-(5-methyl-2-((2,2,2-trifluoroethoxy)methyl)phenyl)-4-oxothiazolidin-2-ylidene)urea]: the pest or weed control at 50 µg/cm2 in test [1] and in test [2] was 50 to 100% each time.

Take `Cc1ccc(C(C)C)c(N2C(=O)CS/C2=N\C(=O)Nc2ccc(-c3ncn(-c4ccc(OC(F)(F)F)cc4)n3)cc2C#N)c1` [Compound J227, (Z)-1-(2-cyano-4-(1-(4-(trifluoromethoxy)phenyl)-1H-1,2,4-triazol-3-yl)phenyl)-3-(3-(2-isopropyl-5-methylphenyl)-4-oxothiazolidin-2-ylidene)urea]: the pest or weed control at 50 µg/cm2 in test [1] and in test [2] was 50 to 100% in each case.

With `COC(C)c1ccc(C)cc1N1C(=O)CS/C1=N\C(=O)Nc1ccc(-c2ncn(-c3ccc(OC(F)(F)F)cc3)n2)cc1C#N` (stereo not shown) [Compound J228, (Z)-1-(2-Cyano-4-(1-(4-(trifluoromethoxy)phenyl)-1H-1,2,4-triazol-3-yl)phenyl)-3-(3-(2-(1-methoxyethyl)-5-methylphenyl)-4-oxothiazolidin-2-ylidene)urea], the pest or weed control at 50 µg/cm2 in test [1] and in test [2] was 50 to 100% in each case.

Consider `COC(C)c1ccc(C)cc1N1C(=O)CS/C1=N\C(=O)Nc1ccc(-c2ncn(-c3ccc(SC(F)(F)F)cc3)n2)cc1C` (stereo not shown) [Compound J233, (Z)-1-(3-(2-(1-Methoxyethyl)-5-methylphenyl)-4-oxothiazolidin-2-ylidene)-3-(2-methyl-4-(1-(4-((trifluoromethyl)thio)phenyl)-1H-1,2,4-triazol-3-yl)phenyl)urea], for which the pest or weed control at 50 µg/cm2 in test [1] and in test [2] was 50 to 100% in each case.

On to `COC(C)c1ccc(C)cc1N1C(=O)CS/C1=N\C(=O)Nc1ccc(-c2ncn(-c3ccc(OC(F)(F)F)cn3)n2)cc1F` (stereo not shown) [Compound J236, (Z)-1-(2-Fluoro-4-(1-(5-(trifluoromethoxy)pyridin-2-yl)-1H-1,2,4-triazol-3-yl)phenyl)-3-(3-(2-(1-methoxyethyl)-5-methylphenyl)-4-oxothiazolidin-2-ylidene)urea], for which the pest or weed control at 50 µg/cm2 in test [1] and in test [2] was 50 to 100% each time.

As to `Cc1ccc(COCC(F)(F)F)c(N2C(=O)CS/C2=N\C(=O)Nc2ccc(-c3ncn(-c4ccc(OC(F)(F)F)cn4)n3)cc2F)c1` [Compound J237, (Z)-1-(2-Fluoro-4-(1-(5-(trifluoromethoxy)pyridin-2-yl)-1H-1,2,4-triazol-3-yl)phenyl)-3-(3-(5-methyl-2-((2,2,2-trifluoroethoxy)methyl)phenyl)-4-oxothiazolidin-2-ylidene)urea], the pest or weed control at 50 µg/cm2 in test [1] and in test [2] was 50 to 100% in each case.

`CC(C)c1ccc(N(C)C)cc1N1C(=O)CS/C1=N\C(=O)Nc1ccc(-c2ncn(-c3ccc(OC(F)(F)F)cn3)n2)cc1F` [Compound J238, (Z)-1-(3-(5-(Dimethylamino)-2-isopropylphenyl)-4-oxothiazolidin-2-ylidene)-3-(2-fluoro-4-(1-(5-(trifluoromethoxy)pyridin-2-yl)-1H-1,2,4-triazol-3-yl)phenyl)urea]: the pest or weed control at 50 µg/cm2 in test [1] and in test [2] was 50 to 100% in each case.
